Measurements taken from ChEMBL document CHEMBL1139625, “Synthesis and binding affinity of novel 3-aminoethyl-1-tetralones, potential atypical antipsychotics” (Bioorg Med Chem Lett, 2005).

Key:
[1] = Inhibitory constant towards 5-hydroxytryptamine 2C receptor (5-HT2C)
[2] = Inhibitory constant towards dopamine D2 receptor was determined
[3] = Inhibitory constant towards 5-hydroxytryptamine 2A receptor (5-HT2A)
[4] = Ratio of inhibitory constant for 5-hydroxytryptamine 2A receptor to that of dopamine receptor D2

Log Ki [1]	Log Ki [2]	Log Ki [3]	Ratio [4]	SMILES
-7.05	< -5	-6.15		O=C1NC(=O)C2(CCN(CCC3CC(=O)c4ccccc4C3)CC2)N1 (centres undefined)
	-9.22			O=C(CCCN1CCC(O)(c2ccc(Cl)cc2)CC1)c1ccc(F)cc1 [HALOPERIDOL]
< -5	< -5	< -5		O=C1CC(CCN2CCC3(CC2)NCNC3=O)Cc2ccccc21 (centres undefined)
		-8.02	1.18	COc1cc2c(cc1OC)C(=O)CC(CN1CCC(c3noc4cc(F)ccc34)CC1)C2 (centres undefined)
-6.9	< -5	-5.98		COc1ccc2c(c1)C(=O)CC(CCN1CCC3(CC1)NC(=O)NC3=O)C2 (centres undefined)
-6.35	-6.97	-6.59	0.95	COc1ccccc1N1CCN(CCC2CC(=O)c3ccccc3C2)CC1 (centres undefined)
< -5	< -5	-6.54		O=C1CC(CCN2CCN(c3ccccn3)CC2)Cc2ccccc21 (centres undefined)
-5.79		-7.34	1.16	COc1ccc2c(c1)CC(CN1CCC(c3noc4cc(F)ccc34)CC1)CC2=O (centres undefined)
-5.72	-6.55	-6.65	1.01	COc1ccc2c(c1)C(=O)CC(CCN1CCN(c3ccccc3OC)CC1)C2 (centres undefined)
-6.89		-8.57	1.18	O=C1CC(CN2CCC(c3noc4cc(F)ccc34)CC2)Cc2ccccc21 (centres undefined)
< -5	< -5	< -5		COc1ccc2c(c1)C(=O)CC(CCN1CCC3(CC1)NCNC3=O)C2 (centres undefined)
-5.81	< -5	-6.33		COc1ccc2c(c1)C(=O)CC(CCN1CCN(c3ccccn3)CC1)C2 (centres undefined)
-6.89	-7.04	-8.23	1.17	COc1ccc2c(c1)C(=O)CC(CCN1CCC(c3noc4cc(F)ccc34)CC1)C2 (centres undefined)
-7.06	-5.98	-8.29	1.38	O=C1CC(CCN2CCC(c3noc4cc(F)ccc34)CC2)Cc2ccccc21 (centres undefined)

SMILES	Log Ki [1]	Log Ki [2]	Log Ki [3]	Ratio [4]
CN1CCN(C2=Nc3cc(Cl)ccc3Nc3ccccc32)CC1 [CLOZAPINE]		-6.65		
